How the values were obtained:
CYP 3A4 [1] = biological target: T1, CYP 3A4 (Homo sapiens, UniProt P08684); assay: Rate of hydroxylation of BOM-09B by CYP 3A4; assay type: biochemical
T1 construct: NADPH regenerating system
Description: The racemic compound mixture (designated BOM-09B) was tested for activity with cytochrome P450 isozymes. […] The CYP 3A4 assay was performed in a 96-well plate at 37° C. in a volume of 100 μL/well. BOM-09B was diluted from a stock solution of 1 mM in acetonitrile to a 4×concentration of 80 μM in 100 mM K+ phosphate buffer of which 25 μl was added to the appropriate wells. […] The cytochrome P450 isozyme CYP3A4 was diluted to give a 2 pmol enzyme per well. Enzymic conversion of the substrate to products was allowed to proceed for 1 hour with fluorescence reads taken every 4 minutes on a fluorescence microtiter plate reader. The solution was illuminated with an 395/25 nm excitation filter and fluorescence emission was detected through a 460/40 nm the emission filter.

CYP 1A2 = biological target: T2, CYP 1A2 (Homo sapiens, UniProt P05177); assay: Kinetics of fluorogenic substrates with CYP 1A2; assay type: biochemical; conditions: for v (1.25 uM), turnover rate at 1.25 μM: CYP 1A2, substrate 1.25 uM; for v (10 uM), turnover rate at 10 μM: CYP 1A2, substrate 10 uM
T2 sequence (P05177 1-516): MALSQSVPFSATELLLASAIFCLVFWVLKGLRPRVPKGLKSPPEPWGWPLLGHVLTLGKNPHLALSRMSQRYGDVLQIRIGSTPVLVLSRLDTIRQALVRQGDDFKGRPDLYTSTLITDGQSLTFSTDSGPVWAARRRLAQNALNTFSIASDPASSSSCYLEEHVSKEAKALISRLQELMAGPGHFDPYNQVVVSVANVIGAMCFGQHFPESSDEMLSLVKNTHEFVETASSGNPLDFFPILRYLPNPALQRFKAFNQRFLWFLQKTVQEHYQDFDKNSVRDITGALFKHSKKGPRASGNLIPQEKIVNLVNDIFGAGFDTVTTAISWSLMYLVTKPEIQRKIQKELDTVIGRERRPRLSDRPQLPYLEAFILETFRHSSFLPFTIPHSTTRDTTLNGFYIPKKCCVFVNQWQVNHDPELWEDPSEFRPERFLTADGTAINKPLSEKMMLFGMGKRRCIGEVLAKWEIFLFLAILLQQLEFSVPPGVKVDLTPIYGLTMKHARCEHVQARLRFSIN

CYP 2C19 = CYP 2C19 (Homo sapiens, UniProt P33261); assay: Kinetics of fluorogenic substrates with CYP 2C19; assay type: biochemical; conditions: for v (1.25 uM), turnover rate at 1.25 μM: CYP 2C19, substrate 1.25 uM; for v (10 uM), turnover rate at 10 μM: CYP 2C19, substrate 10 uM
CYP 3A4 [2] = biological target: T1, CYP 3A4; assay: Kinetics of fluorogenic substrates with CYP 3A4; assay type: biochemical
Text: Whichever of the four abstractable hydrogen atoms (designated H^1 and H^2 in this representation of BOMR) is removed in the initial reaction step, with reference to Reaction Scheme 1 of FIG. 1, the hydroxylation product will spontaneously decompose to the free resorufin dye. In addition, the benzyloxy group, attached to the carbon carrying the two hydrogens designated H^2, contributes an inductive electronic effect on that carbon, which can stabilize the radical formed during abstraction of one of the H^2 hydrogens by a cytochrome P450.
Optimization of assay conditions was, and is preferably, accomplished through statistically validated Design of Experiments methodologies, using the commercial software package "Design-Expert®" produced by Stat-Ease® Inc. The data shown in FIGS. 4 and 5 were obtained with initial optimization.
For further understanding these terms in the context of this invention, attention is directed to FIG. 4 and the analysis of FIG. 4.

CYP 2B6 = biological target: T3, CYP 2B6 (Homo sapiens, UniProt P20813); assay: Kinetics of fluorogenic substrates with CYP 2B6; conditions: for v (1.25 uM), turnover rate at 1.25 μM: CYP 2B6, substrate 1.25 uM; for v (10 uM), turnover rate at 10 μM: CYP 2B6, substrate 10 uM
T3 sequence (P20813 1-491): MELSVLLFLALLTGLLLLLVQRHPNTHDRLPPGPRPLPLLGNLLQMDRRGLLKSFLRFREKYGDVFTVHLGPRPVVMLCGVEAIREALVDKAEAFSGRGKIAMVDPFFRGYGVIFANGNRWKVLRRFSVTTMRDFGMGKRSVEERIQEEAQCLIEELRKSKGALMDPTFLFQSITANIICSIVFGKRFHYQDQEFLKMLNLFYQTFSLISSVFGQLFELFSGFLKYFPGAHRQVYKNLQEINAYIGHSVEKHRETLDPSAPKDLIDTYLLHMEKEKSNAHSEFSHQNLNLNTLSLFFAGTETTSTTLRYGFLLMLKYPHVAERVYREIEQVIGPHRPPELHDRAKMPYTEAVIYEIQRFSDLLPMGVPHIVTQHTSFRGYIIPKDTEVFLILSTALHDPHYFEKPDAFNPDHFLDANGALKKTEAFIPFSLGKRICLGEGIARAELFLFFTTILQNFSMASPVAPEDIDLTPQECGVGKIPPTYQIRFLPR

CYP 2C9 = CYP 2C9 (Homo sapiens, UniProt P11712); assay: Kinetics of fluorogenic substrates with CYP 2C9; assay type: biochemical
[3] = substrate: COCOc1ccc2c(C(F)(F)F)cc(=O)oc2c1; assay: Kinetics of fluorogenic substrates with CYP 2C9; assay type: biochemical, human; conditions: other: CYP 2C9
[4] = substrate: N#Cc1cc2ccc(OCOCc3ccccc3)cc2oc1=O; assay: Kinetics of fluorogenic substrates with CYP 2C9; assay type: biochemical, human; conditions: other: CYP 2C9
[5] = substrate: COc1ccc2c(C(F)(F)F)cc(=O)oc2c1; assay: Kinetics of fluorogenic substrates with CYP 2C9; assay type: biochemical, human; conditions: other: CYP 2C9

CYP 2C19, sequence (P33261 whole entry): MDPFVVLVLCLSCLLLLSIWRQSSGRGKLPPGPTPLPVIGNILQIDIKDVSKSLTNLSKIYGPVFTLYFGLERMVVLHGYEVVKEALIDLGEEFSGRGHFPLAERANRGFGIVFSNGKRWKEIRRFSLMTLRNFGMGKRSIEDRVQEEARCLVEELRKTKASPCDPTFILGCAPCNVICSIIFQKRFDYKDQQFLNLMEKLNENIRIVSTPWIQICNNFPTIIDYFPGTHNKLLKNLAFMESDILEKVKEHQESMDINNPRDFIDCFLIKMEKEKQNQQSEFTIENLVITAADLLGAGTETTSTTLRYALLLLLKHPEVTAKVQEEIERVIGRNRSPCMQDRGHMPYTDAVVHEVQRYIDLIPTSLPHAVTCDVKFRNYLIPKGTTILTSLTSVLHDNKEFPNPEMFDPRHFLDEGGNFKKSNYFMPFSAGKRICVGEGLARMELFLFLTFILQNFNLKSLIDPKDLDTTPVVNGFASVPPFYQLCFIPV
T1 sequence (P08684 whole entry): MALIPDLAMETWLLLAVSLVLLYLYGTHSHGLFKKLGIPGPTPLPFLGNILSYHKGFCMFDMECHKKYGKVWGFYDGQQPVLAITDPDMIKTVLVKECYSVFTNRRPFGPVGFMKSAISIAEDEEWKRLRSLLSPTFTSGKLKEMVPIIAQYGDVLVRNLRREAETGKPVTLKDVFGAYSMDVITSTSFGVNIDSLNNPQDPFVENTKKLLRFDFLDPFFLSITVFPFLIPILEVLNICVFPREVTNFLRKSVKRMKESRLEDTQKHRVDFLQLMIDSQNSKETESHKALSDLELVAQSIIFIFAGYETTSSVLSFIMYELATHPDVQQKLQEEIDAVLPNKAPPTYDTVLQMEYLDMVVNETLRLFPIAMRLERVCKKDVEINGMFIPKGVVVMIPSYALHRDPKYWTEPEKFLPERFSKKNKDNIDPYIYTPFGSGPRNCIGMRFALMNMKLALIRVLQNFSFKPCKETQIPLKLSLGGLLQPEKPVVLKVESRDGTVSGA

| Molecule | kcat (CYP 1A2; CYP 1A2) [s⁻¹] | kcat/Km (CYP 1A2; CYP 1A2) [M⁻¹ s⁻¹] | type of kinetics (CYP 1A2; CYP 1A2) | v (1.25 uM), turnover rate at 1.25 μM (CYP 1A2) [min⁻¹] | v (10 uM), turnover rate at 10 μM (CYP 1A2) [min⁻¹] | kcat (CYP 2C19; CYP 2C19) [s⁻¹] | kcat/Km (CYP 2C19; CYP 2C19) [M⁻¹ s⁻¹] | type of kinetics (CYP 2C19; CYP 2C19) | v (1.25 uM), turnover rate at 1.25 μM (CYP 2C19) [min⁻¹] | v (10 uM), turnover rate at 10 μM (CYP 2C19) [min⁻¹] | type of kinetics (CYP 2B6; CYP 2B6) | v (1.25 uM), turnover rate at 1.25 μM (CYP 2B6) [min⁻¹] | v (10 uM), turnover rate at 10 μM (CYP 2B6) [min⁻¹] | also measured |
| --- | --- | --- | --- | --- | --- | --- | --- | --- | --- | --- | --- | --- | --- | --- |
| NC1CCCCC1NC(=O)c1cc2ccc(OCOCc3ccccc3)cc2oc1=O (racemic) [BOM-09B] | – | – | – | – | – | – | – | – | – | – | – | – | – | activity with the CYP 3A4 isozyme (CYP 3A4 [1]): particularly high activity; conversion rate (CYP 3A4 [1]; 37° C., pH 8.0, 1 hour): 0.75 pmol substrate/pmol enzyme·min; rate of conversion compared with BOMCC (CYP 3A4 [1]; identical conditions): half that of BOMCC |
| CCOc1ccc2cc(C#N)c(=O)oc2c1 [3CEC, 3-Cyano-7-ethoxycoumarin, reference compound] | 0.733 | 28205 | Michaelis- | 1.73 | 12.55 | 0.0283 | 671 | Michaelis- | 0.05 | 0.34 | – | – | – | – |
| O=c1ccc2nc3ccc(OCc4ccccc4)cc3oc-2c1 [BR, Benzylresorufin, reference compound] | – | – | – | – | – | – | – | – | – | – | not Michaelis- | 0.42 | 0.42 | kcat (CYP 3A4 [2]; CYP 3A4): 0.0017 s⁻¹; kcat/Km (CYP 3A4 [2]; CYP 3A4): 377 M⁻¹ s⁻¹; type of kinetics (CYP 3A4 [2]; CYP 3A4): Michaelis-; turnover rate (kcat) (CYP 3A4 [2]; CYP 3A4, FIG. 4 data): 0.00167 s⁻¹; v (1.25 uM), turnover rate at 1.25 μM (CYP 3A4 [2]; CYP 3A4, substrate 1.25 uM): 0.02 min⁻¹; v (10 uM), turnover rate at 10 μM (CYP 3A4 [2]; CYP 3A4, substrate 10 uM): 0.08 min⁻¹ |
| CCOCOc1ccc2cc(C#N)c(=O)oc2c1 [EOMCC] | 0.35 | 31818 | Michaelis- | 1.77 | 9.95 | 0.095 | 5723 | Michaelis- | 0.34 | 2.22 | – | – | – | conversion to the corresponding fluorescent product vs 3CEC (CYP 1A2; CYP 1A2): a little bit more efficiently; conversion to the same fluorescent product vs the most closely structurally-related substrate (CYP 2C19; CYP 2C19): more efficient conversion |
| COCOc1ccc2c(C(F)(F)F)cc(=O)oc2c1 [MOMFC, 7-methyloxymethyloxy-4-trifluoromethylcoumarin] | – | – | – | – | – | – | – | – | – | – | not Michaelis- | 0.54 | 0.71 | conversion to the same fluorescent product vs the most closely structurally-related substrate (CYP 2C9; CYP 2C9): more efficient conversion; kcat (CYP 2C9; CYP 2C9): 0.0017 s⁻¹; type of kinetics (CYP 2C9; CYP 2C9): Michaelis-; v (1.25 uM), turnover rate at 1.25 μM (CYP 2C9; CYP 2C9, substrate 1.25 uM): 0.00 min⁻¹; v (10 uM), turnover rate at 10 μM (CYP 2C9; CYP 2C9, substrate 10 uM): 0.07 min⁻¹; conversion to the same fluorescent product vs the most closely structurally-related substrate (CYP 2B6; CYP 2B6): less efficiently converted |
| CYP 2C9 (Homo sapiens) (protein) MDSLVVLVLCLSCLLLLSLWRQSSGRGKLPPGPTPLPVIGNILQIGIKDISKSLTNLSKVYGPVFTLYFGLKPIVVLHGYEAVKEALIDLGEEFSGRGIFPLAERANRGFGIVFSNGKKWKEIRRFSLMTLRNFGMGKRSIEDRVQEEARCLVEELRKTKASPCDPTFILGCAPCNVICSIIFHKRFDYKDQQFLNLMEKLNENIKILSSPWIQICNNFSPIIDYFPGTHNKLLKNVAFMKSYILEKVKEHQESMDMNNPQDFIDCFLMKMEKEKHNQPSEFTIESLENTAVDLFGAGTETTSTTLRYALLLLLKHPEVTAKVQEEIERVIGRNRSPCMQDRSHMPYTDAVVHEVQRYIDLLPTSLPHAVTCDIKFRNYLIPKGTTILISLTSVLHDNKEFPNPEMFDPHHFLDEGGNFKKSKYFMPFSAGKRICVGEALAGMELFLFLTSILQNFNLKSLVDPKNLDTTPVVNGFASVPPFYQLCFIPV | – | – | – | – | – | – | – | – | – | – | – | – | – | Km [3]: 14.9 µM; kcat/Km [3]: 157 M⁻¹ s⁻¹; Km [4]: 3.0 µM; kcat/Km [4]: 814 M⁻¹ s⁻¹; Km [5]: 103.0 µM; kcat [5]: 0.0067 s⁻¹; kcat/Km [5]: 70 M⁻¹ s⁻¹ |

From patent publication US6143492A, “Optical molecular sensors for cytochrome P450 activity” (Aurora Biosciences Corporation, priority 1999, dated 2000)
